# Test results: patent US20050215614A1, “Substituted indoles and their use as hcv inhibitors” (Rigel Pharmaceuticals, Inc., priority 2003, published 2005)
# System: HCV replicon
# Test: HCV Replicon Assay (luciferase, 5-2 Luc replicon cells)
# Type: cell-based
# Conditions: 5-2 Luc replicon cells (Huh7), 24-48 hours with compound, luciferase counts
# Experimental: Actively dividing 5-2 Luc replicon cells were seeded at the density of 5000-7500 cells/well in the volume of 90 μl/well into 96 well plate(s). The cells were then incubated at 37° C. and 5% CO2 for 24 hours. The 5-2 cells are replicon cells licensed from Ralf Bartenschlager (Germany) and have a self-replicating RNA molecule in the Huh7 cell; the RNA contains HCV non-structural proteins that make the self-replication possible.
# Various concentrations of compounds (in the volume of 10 μl) were added into each well 24 hours after seeding the cells. The cells were incubated for another 24-48 hours before luciferase assay.
# After incubating the 5-2 Luc replicon cells with the compounds for 24-48 hours, media were aspirated from each well and Bright-Glo (Promega) luciferase assay reagents were added to each well according to the manufacturer′s manual. Briefly, the Bright-Glo reagent was diluted with equal volume of PBS and an aliquote (100 μl) was added to each well. After incubating the plate at room temperature for 5 minutes, luciferase counts were taken using a luminometer.
row,SMILES,Activity (concentration of inhibitory activity)
1,Cc1cc2cc(NC(=O)C3CCC(=O)C3)ccc2n1C(=O)c1c(Cl)cccc1Cl (centres unmarked) [Compound 16a-14],a (“a” indicates inhibitory activity at a concentration of less than 10 micromolar)
2,"COc1cccc(OC)c1C(=O)n1c(C)cc2cc(NC(=O)C3CC3)ccc21 [Compound 16b4, 5-Cyclopropanecarbonylamino-1-(2′,6′-dimethoxybenzoyl)-2-methylindole]",a (“a” indicates inhibitory activity at a concentration of less than 10 micromolar)
3,"COc1cccc(OC)c1C(=O)n1c(C)cc2cc(NC(=O)C3CCCC3)ccc21 [Compound 16b-1, 5-Cyclopentanecarbonylamino-1-(2′,6′-dimethoxybenzoyl)-2-methylindole]",a (“a” indicates inhibitory activity at a concentration of less than 10 micromolar)
4,"COc1cccc(OC)c1C(=O)n1c(C)cc2cc(NC(=O)C3CCCCC3)ccc21 [Compound 16b-2, 5-Cyclohexanecarbonylamino-1 (2′,6′-dimethoxybenzoyl)-2-methylindole]",a (“a” indicates inhibitory activity at a concentration of less than 10 micromolar)
5,"COc1cccc(OC)c1C(=O)n1c(C)cc2cc(NC(=O)C3CCC3)ccc21 [Compound 16b-3, 5-Cyclobutanecarbonylamino-1-(2′,6′-dimethoxybenzoyl)-2-methylindole]",a (“a” indicates inhibitory activity at a concentration of less than 10 micromolar)
6,"COc1cccc(OC)c1C(=O)n1c(C)cc2cc(NC(=O)c3cccnc3)ccc21 [Compound 16b-5, 1-(2′,6′-Dimethoxybenzoyl)-5-(3-pyridylcarbonyl)amino-2-methylindole]",a (“a” indicates inhibitory activity at a concentration of less than 10 micromolar)
7,"COc1cccc(OC)c1C(=O)n1c(C)cc2cc(NC(=O)C3CCC(=O)C3)ccc21 (centres unmarked) [Compound 16b-6, 1-(2′,6′-Dimethoxybenzoyl)-5-(3-oxo-1-cyclopentanecarbonyl)amino-2-methylindole]",a (“a” indicates inhibitory activity at a concentration of less than 10 micromolar)
8,"Cc1cc2cc(NC(=O)C3CCCC3)ccc2n1C(=O)c1c(F)cccc1C(F)(F)F [Compound 16c-1, 5-Cyclopentanecarbonylamino-1-(2′-fluoro-6′-trifluoromethylbenzoyl)-2-methylindole]",a (“a” indicates inhibitory activity at a concentration of less than 10 micromolar)
9,"Cc1cc2cc(NC(=O)C3CCCCC3)ccc2n1C(=O)c1c(F)cccc1C(F)(F)F [Compound 16c-2, 5-Cyclohexanecarbonylamino-1-(2′-fluoro-6′-trifluoromethylbenzoyl)-2-methylindole]",a (“a” indicates inhibitory activity at a concentration of less than 10 micromolar)
10,"Cc1cc2cc(NC(=O)C3CCC3)ccc2n1C(=O)c1c(F)cccc1C(F)(F)F [Compound 16c-3, 5-Cyclobutanecarbonylamino-1-(2′-fluoro-6′-trifluoromethylbenzoyl)-2-methylindole]",a (“a” indicates inhibitory activity at a concentration of less than 10 micromolar)
11,"Cc1cc2cc(NC(=O)C3CC3)ccc2n1C(=O)c1c(F)cccc1C(F)(F)F [Compound 16c-4, 5-Cyclopropanecarbonylamino-1-(2′fluoro-6′-trifluoromethylbenzoyl)-2-methylindole]",a (“a” indicates inhibitory activity at a concentration of less than 10 micromolar)
12,"Cc1cc2cc(NC(=O)C3CCC(=O)C3)ccc2n1C(=O)c1c(F)cccc1C(F)(F)F (centres unmarked) [Compound 16c-5, 1-(2′-Fluoro-6′-trifluoromethylbenzoyl)-5-(3-oxo-1-cyclopentanecarbonyl)amino-2-methylindole]",a (“a” indicates inhibitory activity at a concentration of less than 10 micromolar)
13,"Cc1cc2cc(NC(=O)C3CCCC3)ccc2n1C(=O)c1c(F)cccc1F [Compound 16d-1, 5-Cyclopentanecarbonylamino-1-(2′,6′-difluorobenzoyl)-2-methylindole]",b (“b” indicates activity is at a concentration greater than 10 micromolar)
14,"Cc1cc2cc(NC(=O)C3CCC3)ccc2n1C(=O)c1c(F)cccc1F [Compound 16d-2, 5-Cyclobutanecarbonylamino-1-(2′,6′-difluorobenzoyl)-2-methylindole]",b (“b” indicates activity is at a concentration greater than 10 micromolar)
15,"Cc1cc2cc(NC(=O)C3CC3)ccc2n1C(=O)c1c(F)cccc1F [Compound 16d-3, 5-Cyclopropanecarbonylamino-1-(2′,6′-difluorobenzoyl)-2-methylindole]",b (“b” indicates activity is at a concentration greater than 10 micromolar)
16,"Cc1cc2cc(NC(=O)C3CCCC3)ccc2n1C(=O)c1c(F)cccc1Cl [Compound 16e-1, 1-(2′-Chloro-6′-fluorobenzoyl)-5-cyclopentanecarbonylamino-2-methylindole]",a (“a” indicates inhibitory activity at a concentration of less than 10 micromolar)
17,"Cc1cc2cc(NC(=O)C3CCCCC3)ccc2n1C(=O)c1c(F)cccc1Cl [Compound 16e-2, 1-(2′-Chloro-6′-fluorobenzoyl)-5-Cyclohexanecarbonylamino-2-methylindole]",a (“a” indicates inhibitory activity at a concentration of less than 10 micromolar)
18,"Cc1cc2cc(NC(=O)C3CCC3)ccc2n1C(=O)c1c(F)cccc1Cl [Compound 16e-3, 1-(2′-Chloro-6′-fluorobenzoyl)-5-cyclobutanecarbonylamino-2-methylindole]",a (“a” indicates inhibitory activity at a concentration of less than 10 micromolar)
19,"Cc1cc2cc(NC(=O)C3CC3)ccc2n1C(=O)c1c(F)cccc1Cl [Compound 16e-4, 1-(2′-Chloro-6′-fluorobenzoyl)-5-cyclopropanecarbonylamino-2-methylindole]",a (“a” indicates inhibitory activity at a concentration of less than 10 micromolar)
20,"Cc1cc2cc(NC(=O)C3CCC(=O)C3)ccc2n1C(=O)c1c(F)cccc1Cl (centres unmarked) [Compound 16e-5, 1-(2′-Chloro-6′-fluorobenzoyl)-5-(3-oxo-1-cyclopentanecarbonyl)amino-2-methylindole]",a (“a” indicates inhibitory activity at a concentration of less than 10 micromolar)
21,"Cc1cccc(C)c1C(=O)n1c(C)cc2cc(NC(=O)C3CCCC3)ccc21 [Compound 16f-1, 5-Cyclopentanecarbonylamino-1-(2′,6′-dimethylbenzoyl)-2-methylindole]",a (“a” indicates inhibitory activity at a concentration of less than 10 micromolar)
22,"Cc1cccc(C)c1C(=O)n1c(C)cc2cc(NC(=O)C3CCCCC3)ccc21 [Compound 16f-2, 5-Cyclohexanecarbonylamino-1-(2′,6′-dimethylbenzoyl)-2-methylindole]",a (“a” indicates inhibitory activity at a concentration of less than 10 micromolar)
23,"Cc1cccc(C)c1C(=O)n1c(C)cc2cc(NC(=O)C3CCC3)ccc21 [Compound 16f-3, 5-Cyclobutanecarbonylamino-1-(2′,6′-dimethylbenzoyl)-2-methylindole]",a (“a” indicates inhibitory activity at a concentration of less than 10 micromolar)
